The values below come from patent publication US7825264B2, “Substituted heterocycles, their use as medicament, and pharmaceutical preparations comprising them” (sanofi-aventis, priority 2005, dated 2010).

The target in the assay is T1, Human Kv1.5 channels (Homo sapiens, UniProt P22460).
T1 construct: expressed in transfected cells; host or cells: Xenopus laevis oocytes injected with RNA synthesized in vitro
T1 sequence (P22460 whole entry): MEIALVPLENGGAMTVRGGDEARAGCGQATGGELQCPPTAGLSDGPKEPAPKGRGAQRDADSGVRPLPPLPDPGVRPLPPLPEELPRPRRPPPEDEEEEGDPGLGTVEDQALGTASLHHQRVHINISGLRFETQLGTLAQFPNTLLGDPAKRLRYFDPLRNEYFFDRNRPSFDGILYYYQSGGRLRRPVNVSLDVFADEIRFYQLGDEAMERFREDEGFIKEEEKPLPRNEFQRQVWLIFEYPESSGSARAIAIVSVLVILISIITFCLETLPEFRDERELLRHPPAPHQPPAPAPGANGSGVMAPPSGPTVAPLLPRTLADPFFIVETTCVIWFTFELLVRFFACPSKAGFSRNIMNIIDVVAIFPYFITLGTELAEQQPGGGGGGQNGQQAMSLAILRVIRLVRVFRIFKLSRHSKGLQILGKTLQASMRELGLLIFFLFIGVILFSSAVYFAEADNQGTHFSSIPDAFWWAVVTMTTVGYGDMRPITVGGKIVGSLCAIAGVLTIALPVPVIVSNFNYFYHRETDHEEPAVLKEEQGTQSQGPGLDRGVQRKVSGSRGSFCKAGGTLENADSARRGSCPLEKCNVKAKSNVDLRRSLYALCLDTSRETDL
As to the kind of experiment: Activity on the Kv1.5 channel: two-microelectrode voltage clamp on Xenopus oocytes expressing Kv1.5. The assay is classed as cell-based. The conditions noted are these: human Kv1.5 expressed in Xenopus oocytes, room temperature, Hill equation; read-out: Kv1.5 IC-50. The method, then:
Determination of the Activity on the Kv1.5 Channel
Human Kv1.5 channels were expressed in xenopus oocytes. For this purpose, firstly oocytes were isolated from Xenopus laevis and defolliculated. Kv1.5-encoding RNA synthesized in vitro was then injected into these oocytes. After Kv1.5 protein expression for 1-7 days, Kv1.5 currents were measured on the oocytes using the two-microelectrode voltage clamp technique. The Kv1.5 channels were in this case usually activated with voltage jumps lasting 500 ms to 0 mV and 40 mV. A solution of the following composition flowed through the bath: NaCl 96 mM, KCl 2 mM, CaCl2 1.8 mM, MgCl2 1 mM, HEPES 5 mM (titrated to pH 7.4 with NaOH). These experiments were carried out at room temperature. The following were employed for data acquisition and analysis: Geneclamp amplifier (Axon Instruments, Foster City, USA) and MacLab D/A converter and software (ADInstruments, Castle Hill, Australia). The substances of the invention were tested by adding them in various concentrations to the bath solution. The effects of the substances were calculated as percent inhibition of the Kv1.5 control current which was obtained when no substance was added to the solution. The data were then extrapolated using the Hill equation in order to determine the inhibitory concentrations IC50 for the respective substances.
Consider `O=C1CCCCN1[C@@H](c1ccc(F)cc1)[C@@H](OCC1CC1)c1cccc2cccnc12` (racemic) [Example 1, 1-[(1R′,2S′)-2-Cyclopropylmethoxy-1-(4-fluorophenyl)-2-quinolin-8-ylethyl]-piperidin-2-one], for which the IC50 is 1.4 µM.
The value for `O=C1CCCN1[C@@H](c1ccc(F)cc1)[C@H](OCCCC(F)(F)F)c1cccnc1` (racemic) [Example 2, 1-[(1R′,2S′)-1-(4-Fluorophenyl)-2-pyridin-3-yl-2-(4,4,4-trifluorobutoxy)-ethyl]pyrrolidin-2-one] was 6 µM; that for `O=C1CCCN1[C@@H](c1cccc2cccnc12)[C@H](OCC1CC1)c1ccc(F)cc1` (racemic) [Example 3, 1-[(1R′,2S′)-2-Cyclopropylmethoxy-2-(4-fluorophenyl)-1-quinolin-8-ylethyl]-pyrrolidin-2-one] was 0.5 µM; that for `O=C1CCCN1[C@@H](c1ccccn1)[C@H](OCC1CC1)c1ccccc1` (racemic) [Example 5, 1-[(1R′,2S′)-2-Cyclopropylmethoxy-2-phenyl-1-pyridin-2-ylethyl]pyrrolidin-2-one] was 1.3 µM.
As for `CCCO[C@@H](c1ccc(Cl)cc1)[C@@H](c1ccccc1)N1CCCC1=O` (racemic) [Example 6, (1R′,2S′)-1-[2-(4-Chlorophenyl)-1-phenyl-2-propoxyethyl]pyrrolidin-2-one], the figure is 0.92 µM; as for `N#Cc1ccc(O[C@@H](c2cccc3cccnc23)[C@H](c2ccc(F)cc2)N2CCCC2=O)cc1` (racemic) [Example 10, 4-[(1R′,2R′)-2-(4-Fluorophenyl)-2-(2-oxopyrrolidin-1-yl)-1-quinolin-8-ylethoxy]benzonitrile], 4.4 µM.
For `O=C1CCCN1[C@H](c1ccc(F)cc1)[C@@H](OCC1CC1)c1cccc2ccccc12` (racemic) [Example 11, 1-[(1S′,2R′)-2-Cyclopropylmethoxy-1-(4-fluorophenyl)-2-naphthalen-1-ylethyl]pyrrolidin-2-one], the IC50 came to 0.2 µM.
As for `O=C1CCCN1[C@H](c1ccc(F)cc1)[C@H](OCC1CC1)c1cccc2ccccc12` (racemic) [Example 12, 1-[(1R′,2R′)-2-Cyclopropylmethoxy-1-(4-fluorophenyl)-2-naphthalen-1-ylethyl]pyrrolidin-2-one], the figure is 0.5 µM; as for `CCCO[C@H](c1ccc(Cl)cc1)[C@H](c1ccccc1)N1CCCCC1=O` (racemic) [Example 13], 0.21 µM; as for `O=C1CCCCN1[C@@H](c1ccc(F)cc1)[C@H](OCC1CC1)c1ccc(F)c(F)c1` (racemic) [Example 14], 0.33 µM.
As for `O=C1CCCN1[C@@H](c1cccnc1)[C@H](OCC1CC1)c1ccc(F)cc1` (racemic) [Example 16], the figure is 0.8 µM; as for `Cc1ccc([C@H]([C@H](OCC2CC2)c2ccc(F)cc2)N2CCCC2=O)s1` (racemic) [Example 17], 0.3 µM.
As for `CCCO[C@H](c1ccccc1)[C@@H](c1ccccc1)N1CCCC1=O` (racemic) [Example 19], the figure is 0.3 µM; as for `CCCO[C@H](c1ccc(F)cc1)[C@H](c1ccccc1)N1CCCC1=O` (racemic) [Example 20], 0.3 µM; as for `O=C1CCCN1[C@H](c1ccccc1)[C@H](OCC1CC1)c1ccc(F)cc1` (racemic) [Example 21], 0.8 µM.
Regarding `O=C1CCCN1[C@@H](c1ccccc1)[C@H](OCCCC(F)(F)F)c1ccc(Cl)cc1` (racemic) [Example 22], the IC50 was 0.5 µM.
The value for `O=C1CCCN1[C@@H](c1ccc(F)cc1)[C@H](OCCCC(F)(F)F)C1CCCCC1` (racemic) [Example 24] was 0.65 µM.
Take `CCCO[C@@H](c1ccc(F)cc1)[C@H](c1ccccc1)N1CCCC1=O` (racemic) [Example 25]: the IC50 turned out to be 0.45 µM.
As for `C#CCO[C@H](c1ccc(F)c(F)c1)[C@H](c1ccc(F)cc1)N1C(=O)CCC1C` (mixture of isomers) [Example 26], the figure is 1 µM.
For the compound `O=C1CCCN1[C@H](c1ccc(F)cc1)[C@H](OCC1CC1)c1ccc(F)cc1` (racemic) [Example 27], the IC50 stood at 0.6 µM.
The value for `CCCO[C@@H](c1ccc(Cl)cc1)[C@H](c1ccccc1)N1CCCC1=O` (racemic) [Example 28] was 0.9 µM; that for `C[C@](c1ccccc1)([C@H](OCC1CC1)c1ccccc1)N1CCCC1=O` (racemic) [Example 29] was 0.9 µM; that for `C#CCO[C@H](c1ccc(F)c(F)c1)[C@H](c1ccc(F)cc1)N1CCCCC1=O` (racemic) [Example 30] was 1.1 µM.
On to `C[C@@](c1ccccc1)([C@H](OCC1CC1)c1ccccc1)N1CCCC1=O` (racemic) [Example 31], for which the IC50 was found to be 1.4 µM.
Consider `O=C1CCCN1[C@@H](c1ccccc1)[C@H](OC1CC1)c1ccccc1` (racemic) [Example 32, 1S,2R-1-(Cyclopropoxy-1,2-diphenylethyl)pyrrolidin-2-one], for which the IC50 was found to be 0.6 µM.
The value for `CCCO[C@H](c1ccc(F)cc1)[C@@H](c1ccc(F)cc1)N1CCCC1=O` (racemic) [Example 33] was 0.9 µM; that for `O=C1CCCN1[C@@H](c1ccc(F)cc1)[C@H](OCCCC(F)(F)F)c1ccc(F)c(F)c1` (racemic) [Example 34] was 1 µM; that for `CC1CCC(=O)N1[C@@H](c1ccc(F)cc1)[C@H](OCC1CC1)c1ccc(F)c(F)c1` (mixture of isomers) [Example 35] was 0.5 µM.
As for `CCCO[C@H](c1ccc(C#N)cc1)[C@H](c1ccc(F)cc1)N1CCCC1=O` (racemic) [Example 36], the figure is 0.6 µM; as for `O=C1CCCN1[C@@H](c1ccc(F)cc1)[C@H](OCC1CC1)c1cc(F)cc(F)c1` (racemic) [Example 37], 0.7 µM.
In the case of `C#CCO[C@H](c1ccc(F)c(F)c1)[C@H](c1ccc(F)cc1)N1CCCC1=O` (racemic) [Example 38], the IC50 amounted to 0.7 µM.
As for `O=C1CCCN1[C@H](c1ccc(F)cc1)[C@@H](OCC1CC1)c1cccc2cccnc12` (racemic) [Example 39], the figure is 1.1 µM.
The value for `O=C1CCCN1[C@@H](c1ccccc1)[C@H](OCc1cccc(Cl)c1)c1ccc(Cl)cc1` (racemic) [Example 40] was 0.8 µM; that for `N#Cc1ccc([C@@H](OCC2CC2)[C@H](c2ccc(F)cc2)N2CCCC2=O)cc1` (racemic) [Example 41] was 1 µM.
As for `O=C1CCCN1[C@@H](c1ccc(F)cc1)[C@H](OCC1CC1)c1ccc(F)c(F)c1` (racemic) [Example 42], the IC50 came to 0.6 µM.
As for `O=C1CCCN1[C@H](c1ccc(F)cc1)[C@H](OCCCC(F)(F)F)c1ccc(F)cc1` (racemic) [Example 43], the figure is 1.4 µM; as for `O=C1CCCN1[C@@H](c1ccccc1)[C@H](OCC1CC1)c1ccc(F)cc1` (racemic) [Example 44], 0.5 µM.
Take `N#Cc1ccc(O[C@H](c2ccc(Cl)cc2)[C@H](c2ccccc2)N2CCCC2=O)cc1` (racemic) [Example 45]: the IC50 was determined as 1 µM.
The value for `COCCO[C@H](c1ccc(Cl)cc1)[C@H](c1ccccc1)N1CCCC1=O` (racemic) [Example 47] was 1 µM; that for `COc1ccc(CO[C@H](c2ccc(F)c(F)c2)[C@H](c2ccc(F)cc2)N2CCCC2=O)cc1` (racemic) [Example 48] was 2.1 µM.
As for `O=C1CCCN1[C@@H](c1ccc(F)cc1)[C@H](OC1CC1)c1ccc(F)c(F)c1` (racemic) [Example 49], the figure is 0.5 µM; as for `O=C1CCCN1[C@@H](c1ccc(F)cc1)[C@H](OCC1CC1)c1ccc(OC(F)(F)F)cc1` (racemic) [Example 50], 0.9 µM.
The value for `O=C1CCCN1[C@@H](c1ccccc1)[C@H](OCCCC(F)(F)F)c1ccc(F)cc1` (racemic) [Example 51] was 0.9 µM.
As for `O=C1CCCN1[C@@H](c1ccccc1)[C@@H](OCc1ccccc1)c1ccc(F)cc1` (racemic) [Example 53], the IC50 was found to be 1.8 µM.
`N#Cc1ccc(O[C@H](c2ccc(F)cc2)[C@H](c2cccc3cccnc23)N2CCCC2=O)cc1` (racemic) [Example 55]: the IC50 was 1.1 µM.
The value for `CCCCO[C@H](c1ccc(Cl)cc1)[C@H](c1ccccc1)N1CCCC1=O` (racemic) [Example 56] was 0.8 µM; that for `O=C1CCCN1[C@@H](c1ccccc1)[C@H](OCc1ccc(Cl)cc1)c1ccc(Cl)cc1` (racemic) [Example 57] was 1 µM.
For the compound `O=C1CCCN1[C@@H](c1ccc(F)cc1)[C@H](OCC1CC1)c1cccnc1` (racemic) [Example 58], the IC50 was 1 µM.
The value for `COc1ccc([C@@H](Oc2ccc(C#N)cc2)[C@H](c2ccc(F)cc2)N2CCCC2=O)cc1` (racemic) [Example 59] was 1.9 µM; that for `COc1ccc(CO[C@H](c2ccc(Cl)cc2)[C@H](c2ccccc2)N2CCCC2=O)cc1` (racemic) [Example 60] was 1.3 µM; that for `CS(=O)(=O)c1ccc([C@@H](OCC2CC2)[C@H](c2ccc(F)cc2)N2CCCC2=O)cc1` (racemic) [Example 61] was 1.8 µM.
The value for `CC#CCO[C@H](c1ccc(F)c(F)c1)[C@H](c1ccc(F)cc1)N1CCCC1=O` (racemic) [Example 62] was 2.4 µM; that for `O=C1CCCN1[C@H](c1ccccn1)[C@H](OCC1CC1)c1ccccc1` (racemic) [Example 63] was 1.7 µM.
